Data published in US11253479B2, “Hydrobromide salt of an anti-HIV compound” (Janssen Sciences Ireland UC, priority 2006, dated 2022).

Legend:
[1] = In-vivo study of bioavailability in dogs of capsules filled with salts
Experimental: Four male dogs were used per tested formulation. The animals were randomized over the test groups by a computer-generated random algorithm according to body weight, with all animals within ±20% of the sex mean. A health inspection was performed prior to commencement of treatment to ensure that the animals were in a good state of health. The dogs were subjected to an acclimatization period of at least 5 days before the start of treatment under laboratory conditions. A controlled environment was maintained in the room. The animals were dosed once orally with the formulations of example 1, and blood was collected from all animals under light ether anaesthesia at regular intervals for a period of 12, 24 or 48 hours after dosing.
The mean pharmacokinetic parameters relating to the mean plasma concentration with time of each test formulation are shown in Table 3. The standard deviation, where calculated, is shown between brackets.

[2] = Stability of salts of compound (A) (decomposition to compound (A) and free acid); type: physicochemical; settings: partial or complete decomposition to compound (A) and the free acid
Text: Contrary to a number of other salts of compound (A) that are unstable, the compound of formula (I) is a stable salt.

[3] = male dogs, dosed once orally, capsules, dose normalized to 1 mg/kg, mean

Tmax ([1]; dog, plasma, po, 118.6 mg salt per capsule, male dogs, dosed once orally, capsules of example 1, mean): 4.5 h
Cmax ([1]; dog, plasma, po, 118.6 mg salt per capsule, male dogs, dosed once orally, capsules, without dose normalization, mean): 366 ng/mL
AUC(0-t) ([1]; dog, plasma, po, 118.6 mg salt per capsule, male dogs, dosed once orally, capsules, without dose normalization, mean, read-out: AUC0-last (without dose normalization)): 5860 ng·h/mL
bioavailability in dogs compared with other salts (Cmax, AUC0-last) ([1]; dogs, oral capsules): improved bioavailability
tlast ([1]; male dogs, dosed once orally, capsules of example 1, mean): 48 h
AUC0-last (dose normalized to 1 mg/kg) [1, 3]: 516.1 ng·h/mL
Cmax (dose normalized to 1 mg/kg) [1, 3]: 31.73 ng/mL
stability of the salt [2]: stable
SMILES: Br.Cc1cc(C#N)cc(C)c1Oc1nc(Nc2ccc(C#N)cc2)nc(N)c1Br [HBr salt, 4-[[4-amino-5-bromo-6-(4-cyano-2,6-dimethylphenyloxy)-2-pyrimidinyl]amino]benzonitrile hydrobromide]
